In patent EP1606307B1, “ESTRIENO[3,2-B]/[3,4-C]PYRROLE DERIVATIVES USEFUL AS MODULATORS OF THE ESTROGEN RECEPTORS” (Ortho-McNeil Pharmaceutical, Inc., priority 2002, dated 2004):

Legend:
[1] = molecular target: T1, human estrogen receptor α (Homo sapiens, UniProt P03372); experiment: Estrogen Receptor α Flash Plate Assay (binding of radiolabeled estrogen); conditions: for inhibition at 1 µM: read-out: ERα at 1µM % Inhibition; for IC50: read-out: ERα Binding IC50
T1 construct: purchased Panvera
T1 sequence (P03372 1-595): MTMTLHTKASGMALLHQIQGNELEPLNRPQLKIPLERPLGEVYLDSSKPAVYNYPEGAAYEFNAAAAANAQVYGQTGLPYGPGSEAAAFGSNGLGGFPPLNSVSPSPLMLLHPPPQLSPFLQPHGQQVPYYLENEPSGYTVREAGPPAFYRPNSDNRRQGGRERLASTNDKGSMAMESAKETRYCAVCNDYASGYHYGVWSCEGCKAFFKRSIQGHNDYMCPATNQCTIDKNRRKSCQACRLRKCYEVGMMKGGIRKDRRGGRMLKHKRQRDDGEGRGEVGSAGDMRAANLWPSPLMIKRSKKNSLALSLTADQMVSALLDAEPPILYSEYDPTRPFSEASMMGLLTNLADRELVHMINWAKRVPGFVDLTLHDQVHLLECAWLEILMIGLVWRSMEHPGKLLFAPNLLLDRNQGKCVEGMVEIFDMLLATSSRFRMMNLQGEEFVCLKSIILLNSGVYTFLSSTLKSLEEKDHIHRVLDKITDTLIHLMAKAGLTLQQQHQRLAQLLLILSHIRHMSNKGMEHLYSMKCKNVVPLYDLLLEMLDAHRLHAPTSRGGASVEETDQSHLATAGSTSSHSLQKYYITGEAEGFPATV
Method: This assay monitors binding of radiolabeled estrogen to the estrogen receptor. It was performed on a BioMek 2000 (Beckman). Plates were read in a scintillation counter (Packard TopCount), with decreased counts an indication of binding of a compound to the receptor. The assay was run according to the procedure described by Allan, et al., Anal. Biochem. (1999), 275(2), 243-247.
On day one, 100 µL of Estrogen Screening Buffer (ESB, Panvera) containing 5mM dithiothreitol (DTT, Panvera), 0.5 µg mouse anti-estrogen receptor monoclonal antibody (SRA-1010, Stressgen) and 50 ng purified human estrogen receptor α (nER-α, Panvera) were added to each well of a 96 well FlashPlate Plus plate crosslinked with goat anti-mouse antibodies (NEN Life Sciences). The plate was sealed and incubated at 4°C overnight.
On day two, each well was washed three times with 200 µL PBS, pH 7.2, at room temperature. To each well was then added 98 µL radiolabeled estrogen (0.5 nM, which equals 6 nCi for a 120 Ci/mmol batch, Amersham), diluted in ESB and 5mM dithiothreitol (DTT). To individual wells were then added 2.5 µL test compound diluted in 30% (v/v) dimethyl sulfoxide/50 mM HEPES, pH 7.5. The wells were mixed three times by aspiration, the plate sealed and incubated at room temperature for one hour. The wells were then counted for 1 min in a TopCount scintillation counter (Packard).

[2] = molecular target: T2, human estrogen receptor β (Homo sapiens, UniProt Q92731); experiment: Estrogen Receptor β Fluorescence Polarization Assay (Fluormone ES2 displacement); format: binding; conditions: read-out: ERβ at 1 µM % Inhibition
T2 construct: purchased Panvera
Text: This assay monitors binding of a fluorescent analog of estrogen (Fluormone ES2, Panvera) to the estrogen receptor. Plates were read in a fluorometer that can be set to polarization mode. A decrease in fluorescence relative to vehicle control is an indication of binding of a compound to the receptor.
It is crucial to avoid introduction of air bubbles into the reaction in each well of the 96 well plate throughout this procedure. (Bubbles on the surface of the reaction disrupt light flow, affecting the polarization reading.) However, it is also crucial to effectively mix the reaction components upon addition to the well.
On ice, a 2X standard mixture of Assay Buffer (Panvera), 10 nM DTT and 40 nM ES2 was prepared. On ice, a 2X reaction mixture of Assay Buffer (Panvera), and 20 nM human estrogen receptor β (hER-β, Panvera) and 40 nM ES2 was also prepared.
Dilutions of test compound were prepared in 30% (v/v) dimethyl sulfoxide/50 mM HEPES, pH 7.5. At this point, the dilutions were 40X the final required concentration.
The standard mixture at 50 µL was then added to each well. The reaction mixture at 48 µL was added to all wells. The compound dilution at 2.5 µL was added to the appropriate wells. The reaction mixtures were mixed using a manual pipette, a roll of aluminum foil adhesive cover was placed on the plate and the plate incubated at room temperature for 1 hour.
Each well on the plate was then read in an LjL Analyst with an excitation wavelength of […] and an emission wavelength of 538.

MCF-7 cells = experiment: MCF-7 Cell Proliferation Assay (14C-thymidine incorporation); format: cell-based; conditions: Homo sapiens, MCF7, increase in 14C-thymidine vs vehicle, read-out: MCF7 (Breast) EC50
Method: This assay was run according to the procedure described by Welshons, et al., (Breast Cancer Res. Treat., 1987, 10(2), 169-75), with minor modification.
Briefly, MCF-7 cells (from Dr. C. Jordan, Northwestern University) were maintained in RPMI 1640 phenol red free medium (Gibco) in 10% FBS (Hyclone), supplemented with bovine insulin and non-essential amino acid (Sigma). The cells were initially treated with 4-hydoxyltamoxifen (10^-8 M) and let stand at 37°C for 24 hours. Following this incubation with tamoxifen, the cells were treated with compounds at various concentrations.
Compounds to be tested in the agonist mode were added to the culture media at varying concentrations. Compounds to be treated in the antagonist mode were prepared similarly, and 10 nM 17β-estradiol was also added to the culture media. The cells were incubated for 24 hours at 37°C. Following this incubation, 0.1 µCi of ^14C-thymidine (56mCi/mmol, Amersham) was added to the culture media and the cells were incubated for an additional 24 hours at 37°C. The cells were then washed twice with Hank's buffered salt solution (HBSS) (Gibco) and counted with a scintillation counter. The increase in the ^14C-thymidine in the compound treated cells relative to the vehicle control cells were reported as percent increase in cell proliferation.

[3] = test system: Human Endometrial lshikawa Cells; experiment: Alkaline Phosphatase Assay in Human Endometrial Ishikawa Cells; format: cell-based; conditions: increase in alkaline phosphatase activity vs vehicle
Method: This assay was run according to the procedure described by Albert et a., Cancer Res, […], 50(11), 330-6-10, with minor modification.
Ishikawa cells (from ATCC) were maintained in DMEM/F12 (1:1) phenol red free medium (Gibco) supplemented with 10% calf serum (Hyclone). 24 hours prior to testing, the medium was changed to DMEM/F12 (1:1) phenol red free containing 2% calf serum.
Compounds to be tested in the agonist mode were added to the culture media at varying concentrations. Compounds to be treated in the antagonist mode were prepared similarly, and 10 nM 17β-estradiol was also added to the culture media. The cells were then incubated at 37°C for 3 days. On the fourth day, the media was remove, 1 volume of 1X Dilution Buffer (Clontech) was added to the well followed by addition of 1 volume of Assay Buffer (Clontech). The cells were then incubated at room temperature for 5 minutes. 1 volume of freshly prepared Chemiluminescence Buffer (1 volume of chemiluminescent substrate (CSPD) in 19 volume Chemiluminescent Enhancer with final concentration of CSPD at 1.25 mM; Sigma Chemical Co.) was added. The cells were incubated at room temperature for 10 minutes and then quantified on a luminometer. The increase of chemiluminescence over vehicle control was used to calculate the increase in alkaline phosphatase activity.

T2 sequence (Q92731 whole entry): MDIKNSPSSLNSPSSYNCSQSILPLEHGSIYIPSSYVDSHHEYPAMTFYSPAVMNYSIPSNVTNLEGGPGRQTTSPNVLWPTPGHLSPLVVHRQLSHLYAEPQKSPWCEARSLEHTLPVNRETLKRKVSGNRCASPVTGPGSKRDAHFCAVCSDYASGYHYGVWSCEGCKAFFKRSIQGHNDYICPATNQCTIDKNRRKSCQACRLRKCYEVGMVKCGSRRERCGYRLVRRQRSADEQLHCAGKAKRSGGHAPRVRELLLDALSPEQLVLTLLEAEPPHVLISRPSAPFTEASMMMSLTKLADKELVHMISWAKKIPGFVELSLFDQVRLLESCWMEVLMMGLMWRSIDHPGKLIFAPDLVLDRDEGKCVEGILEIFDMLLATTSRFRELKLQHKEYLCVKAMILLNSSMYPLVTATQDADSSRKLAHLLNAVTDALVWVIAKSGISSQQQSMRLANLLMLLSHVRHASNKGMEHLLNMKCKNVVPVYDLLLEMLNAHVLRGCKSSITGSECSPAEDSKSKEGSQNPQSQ

Row | inhibition at 1 µM [1] | inhibition at 1 µM [2] | Compound | IC50 [1] | EC50 (MCF-7 cells) | EC50 [3]
1 | 11% | 6.2% | C[C@]12CCC3c4cc5ccn(S(C)(=O)=O)c5cc4CCC3C1CCC2=O (stereo partly shown) [Compound 1] |  |  | 
2 | 45% | 27% | C[C@]12CCC3c4ccc5c(ccn5S(C)(=O)=O)c4CCC3C1CCC2=O (stereo partly shown) [Compound 2] |  |  | 
3 | 19% | 14% | C[C@]12CCC3c4cc5ccn(S(C)(=O)=O)c5cc4CCC3C1CC[C@@H]2O (stereo partly shown) [Compound 7] |  |  | 
4 | 81% | 66% | CSc1c[nH]c2ccc3c(c12)CCC1C3CC[C@]2(C)C(=O)CCC12 (stereo partly shown) [Compound 15] |  |  | 

The remaining lines, values behind:

Row | Compound | inhibition at 1 µM [1] | inhibition at 1 µM [2] | IC50 [1] | EC50 (MCF-7 cells) | EC50 [3]
5 | C[C@]12CCC3c4cc5cc[nH]c5cc4CCC3C1CCC2=O (stereo partly shown) [Compound 3] |  |  | 2200 nM | 240 nM | 1.9 nM
6 | C[C@]12CCC3c4ccc5[nH]ccc5c4CCC3C1CCC2=O (stereo partly shown) [Compound 4] |  |  | 1400 nM | 280 nM | 1.8 nM
7 | C[C@]12CCC3c4ccc5[nH]ccc5c4CCC3C1CC[C@@H]2O (stereo partly shown) [Compound 6] |  |  | 42 nM | 2.9 nM | 0.21 nM
8 | C[C@]12CCC3c4cc5cc[nH]c5cc4CCC3C1CC[C@@H]2O (stereo partly shown) [Compound 8] |  |  | 40 nM | 11 nM | 0.44 nM
9 | CCCCC(=O)O[C@H]1CCC2C3CCc4cc5[nH]ccc5cc4C3CC[C@@]21C (stereo partly shown) [Compound 12] | 95% | 96% |  |  | 
10 | C[C@]12CCC3c4cc5cc[nH]c5cc4CCC3C1CC[C@@H]2OC(=O)CCC(=O)O (stereo partly shown) [Compound 13] |  |  | 920 nM | 15 nM | 1.2 nM
